Assay results taken from patent publication US20100292175A1, “USE OF HYDROXYFLAVAN DERIVATIVES FOR TASTE MODIFICATION” (Leibniz-Institut fur Pflanzenbiochemie, priority 2009, published 2010).

How the values were obtained:
Format in all cases: in vivo
[1] = Comparative Test 2: inherent sweetness (sucrose equivalence) in water, panel of experts
Method: The inherent sweetness of compound 2 from Example 1, which was dissolved in water in a pure form in different concentrations (0.0025 or 0.0050% by weight in water) was determined by a panel of experts (panelists) using a series of comparisons of different sucrose concentrations in water (0; 0.25; 0.5; 0.75; 1; 1.5; 2; 3; 4 and 5% by weight sucrose in water).
(§1) The panelists were asked to test each solution of compound 2 in water against the sucrose series and to grade them according to their degree of sweetness (sucrose equivalent). It was possible to determine the inherent sweetness of compound 2 for the above-mentioned concentrations from the results provided by the panelists. In addition to the sucrose equivalence in water (i.e. without sucrose), the sucrose equivalence in a 5% sucrose solution was also determined.

[2] = Enhancement of the sweet sensation of a sugar solution, Comparative Test 1, panel of experts; settings: for Sweet sensation (1-10) Sample (sucrose + substance): grading 1 [not sweet] to 10 [extremely sweet]; for synergistic enhancement of the sweet taste of a sweet-tasting substance: according to our own experiments
Excerpt: To quantify the enhancement of the sweet sensation, the sweetness of a 5% sucrose solution was compared by a panel of experts in each case with a sample which contained 5% of sucrose as well as 50 ppm or 100 ppm of a compound of formula (I) to be used according to the invention (grading: 1 [not sweet] to 10 [extremely sweet]).
For the evaluation, i.e. the calculation of the enhancement (in %) of the sweet sensation, the mean values of the assessments by the panel of experts of the sucrose solution and the sample, to be compared, containing sucrose and a compound of formula (I) were used in each case.

[3] = Bitter reduction of a bitter substance solution (caffeine), panel of experts; settings: for Bitter sensation (1-10) Sample (caffeine + substance): grading 1 [not bitter] to 10 [extremely bitter]
Excerpt: To quantify the reduction (i.e. the masking or reduction) of the bitter sensation in a sample, the bitterness of a solution containing 500 ppm of caffeine was compared by a panel of experts in each case with a sample which contained 500 ppm of caffeine and additionally 50 ppm or 100 ppm of a substance to be assessed (in respect of the bitter-reduction ability) (grading: 1 [not bitter] to 10 [extremely bitter]).
For the evaluation, i.e. the calculation of the reduction (in %) of the bitter sensation, the mean values of the assessments by the panel of experts of the caffeine solution and the sample, to be compared, containing caffeine and a substance to be assessed were used in each case. In this respect, 2,4-dihydroxybenzoic acid (2,4-DHB) was used as the comparison (reference) according to U.S. Pat. No. 5,643,941.

[4] = Comparative Test 2: sucrose equivalence in a 5% sucrose solution, panel of experts; settings: for Sucrose equivalence in a 5% sucrose solution, Calculation (5 + x) %: purely additive calculation; for synergy or synergistic additional effect: determined vs calculated sucrose equivalence
Method: as §1
It was possible to establish a clear synergistic sweetness enhancement even at a low concentration, not sweet per se, of approximately 25 ppm of compound 2 (from Example 1). From a purely calculational point of view, it was to be expected that a 5% sucrose solution (i.e. a sucrose solution which corresponds in sensory manner by definition to 5% sucrose equivalents) which contains 25 ppm or 50 ppm of compound 2 (from Example 1) produced a sweetness of approximately 5.84 or 6.45 sucrose equivalents by a purely additive effect of the inherent sweetness of compound 2 (see the determined sucrose equivalence in water). However, the sensory assessment of such a 5% sucrose solution with 25 ppm or 50 ppm of compound 2 (from Example 1) by the panelists produced an averaged sucrose equivalence of 6.8% or 8.2%. Considering the values to be expected from a purely calculational point of view, this corresponds to a synergy or a synergistic additional effect of approximately 17% or 27%.

[5] = 50 ppm substance + 5% sucrose vs 5% sucrose solution
[6] = 50 ppm substance + 500 ppm caffeine vs 500 ppm caffeine solution
[7] = 50 ppm substance + 500 ppm caffeine

SMILES	Enhancement of the sweet sensation [2, 5] [%]	Sweet sensation (1-10) Sample (sucrose + substance) ([2]; 50 ppm substance + 5% sucrose)	Reduction of the bitter sensation [3, 6] [%]	Bitter sensation (1-10) Sample (caffeine + substance) [3, 7]	also measured
COc1ccc(C2CCc3ccc(O)cc3O2)cc1O (racemic) [compound 2, 3′,7-dihydroxy-4′-methoxyflavan]	57	8.1 ± 1.3	27	3.9 ± 1.9	Determination of the sucrose equivalence in water (without sucrose) ([1]; 0.0025 % by weight in water): 0.84%; Determination of the sucrose equivalence in water (without sucrose) ([1]; 0.0050 % by weight in water): 1.45%; synergistic enhancement of the sweet taste of a sweet-tasting substance [2]: particularly strong synergistic enhancement; Sucrose equivalence in a 5% sucrose solution, Determination ([4]; 0.0025 % by weight (25 ppm) in 5% sucrose solution): 6.8%; Sucrose equivalence in a 5% sucrose solution, Calculation (5 + x) % ([4]; 0.0025 % by weight): 5.84%; Sucrose equivalence in a 5% sucrose solution, Determination ([4]; 0.0050 % by weight (50 ppm) in 5% sucrose solution): 8.2%; Sucrose equivalence in a 5% sucrose solution, Calculation (5 + x) % ([4]; 0.0050 % by weight): 6.45%; sweetness to be expected by a purely additive effect of the inherent sweetness ([4]; 25 ppm in 5% sucrose solution): approximately 5.84 sucrose equivalents; synergy or synergistic additional effect ([4]; 25 ppm in 5% sucrose solution): approximately 17%; sweetness to be expected by a purely additive effect of the inherent sweetness ([4]; 50 ppm in 5% sucrose solution): ~6.45 sucrose equivalents; synergy or synergistic additional effect ([4]; 50 ppm in 5% sucrose solution): ~27%
O=C(O)c1ccc(O)cc1O [2,4-DHB, 2,4-dihydroxybenzoic acid, reference compound]					Reduction of the bitter sensation ([3]; 100 ppm substance + 500 ppm caffeine vs 500 ppm caffeine solution): 3%; Bitter sensation (1-10) Sample (caffeine + substance) ([3]; 100 ppm substance + 500 ppm caffeine): 5.0 ± 1.0
Oc1ccc(C2CCc3ccc(O)cc3O2)cc1 (stereo not shown) [compound 1, 4′,7-dihydroxyflavan]					Enhancement of the sweet sensation ([2]; 100 ppm substance + 5% sucrose vs 5% sucrose solution): 21%; Sweet sensation (1-10) Sample (sucrose + substance) ([2]; 100 ppm substance + 5% sucrose): 6.2 ± 1.5; synergistic enhancement of the sweet taste of a sweet-tasting substance [2]: particularly strong synergistic enhancement
COc1cc(C2CCc3ccc(O)cc3O2)ccc1O (stereo not shown) [compound 3, 4′,7-dihydroxy-3″-methoxyflavan]			15	4.1 ± 1.4	
Oc1ccc(C2CCc3c(O)cc(O)cc3O2)cc1 (stereo not shown) [compound 14, 4′,5,7-trihydroxyflavan]			26	3.8 ± 1.9	
COc1ccc(C2CCc3c(O)cc(O)cc3O2)cc1O (stereo not shown) [compound 15, 3′,5,7-trihydroxy-4′-methoxyflavan]	21	5.8 ± 1.6	15	3.8 ± 1.5	
COc1cc(C2CCc3c(O)cc(O)cc3O2)ccc1O (stereo not shown) [compound 16, 4′,5,7-trihydroxy-3′-methoxyflavan]			5	4.1 ± 2.0	
COc1ccc([C@@H]2CCc3ccc(O)cc3O2)cc1O [compound S-2, (2S)-3′,7-dihydroxy-4″-methoxyflavan]	36	7.8 ± 1.7	16	3.9 ± 1.5	
